The source of these data is patent US4760136A, “Chartreusin derivatives and salts thereof” (Ishihara Sangyo Kaisha, Ltd., priority 1984, dated 1988).

Holding throughout (format): in vivo
One series deals with ddY mice. The series can be described thus: Acute toxicity, intravenous (once), ddY mice. The settings on record: formulated per Preparation Example. From the text:
(§1) In Table 7 are shown acute toxicity values (LD50, mg/kg) in ddY mice in the case of intravenously administering (once) each of the compounds of this invention in the form of preparations shown in the Preparation Examples shown in Table 7.

The test system of the next series is P-388 leukemia cells. In words: Antitumor activity: P-388 leukemia cells inoculated intraperitoneally, drug administered intravenously, BDF1 mice. Particulars: for response vs control in vivo at 20 mg/kg: dose b: 20 mg/kg × 3, i.v. on days 1, 5 and 9; for response vs control in vivo at 80 mg/kg: dose f: 80 mg/kg × 3, i.v. on days 1, 5 and 9; for response vs control in vivo at 60 mg/kg: dose e: 60 mg/kg × 3, i.v. on days 1, 5 and 9. The method, boiled down:
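Drug dosing was intravenous on the first, fifth and ninth days after intraperitoneal inoculation of P-388 leukemia cells (1×10^6 per mouse) into BDF1 mice. Vehicles were physiological saline alone, or saline with small amounts of sodium carboxymethyl cellulose or Tween-80.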

Series [1] in a line: Acute toxicity, intravenous (once), ddY mice. Particulars: mouse, in vivo, formulated per Preparation Example.
Source text: as §1

Where [2] appears, read: Mus musculus, P388, iv, BDF1 mice, P-388 i.p., read-out: T/C (%) of MST.
The mark [3] stands for this setting: dose c: 40 mg/kg × 3, i.v. on days 1, 5 and 9, BDF1 mice, P-388 i.p.
The mark [4] stands for this setting: Mus musculus, P388, iv, dose c: 40 mg/kg × 3, i.v. on days 1, 5 and 9, BDF1 mice, P-388 i.p., read-out: T/C (%) of MST.

Where two headings read alike, the source gives them in different places.

For orientation: LD50 means the dose at which mortality reaches 50%. Read a low LD50 as a more toxic substance. As to `COC1C(O)C(C)OC(OC2C(Oc3cccc4c(OC(=O)C5CCCCC5NC(=O)C(F)(F)F)c5c(=O)oc6ccc(C)c7c(=O)oc(c34)c5c67)OC(C)C3OC(c4ccccc4)OC32)C1O` (single isomer, unassigned) [Compound No. 26, 6-O-(N-Trifluoroacetyl-2-Amino-Cyclohexanecarbonyl)-3',4'-O-Benzylidene-Chartreusin], the 50% lethal dose (LD50) in the series with ddY mice is recorded as ≥ 40 mg/kg. Moreover, the response vs control in vivo at 20 mg/kg in the series with P-388 leukemia cells (setting [2]) came out at 195%. The “T/C (%) of MST” value in the series on P-388 leukemia cells (setting [3]) is on record as 220%.
Consider `COC1C(O)C(C)OC(OC2C(Oc3cccc4c(OC(=O)C5CCCCC5NC(=O)C(F)(F)F)c5c(=O)oc6ccc(C)c7c(=O)oc(c34)c5c67)OC(C)C3OC(c4cccc(F)c4)OC32)C1O` (single isomer, unassigned) [Compound No. 117, 6-O-(N-Trifluoroacetyl-2-Amino-Cyclohexanecarbonyl)-3',4'-O-(m-Fluorobenzylidene)-Chartreusin], for which the LD50 in the series with ddY mice is ≥ 30 mg/kg. In addition, the response vs control in vivo at 40 mg/kg in the series with P-388 leukemia cells (setting [4]) was found to be 135%.
As for `COC1C(O)C(C)OC(OC2C(Oc3cccc4c(OC(=O)CCN)c5c(=O)oc6ccc(C)c7c(=O)oc(c34)c5c67)OC(C)C3OC(c4ccccc4)OC32)C1O` (centres unmarked) [Compound No. 17], the LD50 in the series with ddY mice was ≥ 40 mg/kg. Also, the response vs control in vivo at 20 mg/kg in the series on P-388 leukemia cells (setting [2]) came to 206%. In addition, the “T/C (%) of MST” value in the series with P-388 leukemia cells (setting [3]) came to 241%.
In the case of `COC1C(O)C(C)OC(OC2C(Oc3cccc4c(OC(=O)CCNC(=O)C(F)(F)F)c5c(=O)oc6ccc(C)c7c(=O)oc(c34)c5c67)OC(C)C3OC(c4ccccc4)OC32)C1O` (stereo not drawn) [Compound No. 28, 6-O-(N-Trifluoroacetyl-β-Alanyl)-3',4'-O-Benzylidene-Chartreusin], the LD50 in the series with ddY mice is reported as ≥ 120 mg/kg. Further, in the series on P-388 leukemia cells (setting [2]), the response vs control in vivo at 80 mg/kg stood at 193%. In addition, the response vs control in vivo at 120 mg/kg with P-388 leukemia cells (Mus musculus, P388, iv, dose h: 120 mg/kg × 3, i.v. on days 1, 5 and 9, BDF1 mice, P-388 i.p., read-out: T/C (%) of MST) was found to be 227%.
`COC1C(O)C(C)OC(OC2C(Oc3cccc4c(OC(=O)CCNC(C)=O)c5c(=O)oc6ccc(C)c7c(=O)oc(c34)c5c67)OC(C)C3OC(c4ccccc4)OC32)C1O` (centres unmarked) [Compound No. 29]: in the series with ddY mice, the LD50 is reported as ≥ 80 mg/kg. Also, the response vs control in vivo at 40 mg/kg in the series with P-388 leukemia cells (setting [4]) is 173%. For the same compound, the response vs control in vivo at 80 mg/kg in the series on P-388 leukemia cells (setting [2]) is 221%.
For the compound `C/C=C(\C)C(=O)Oc1c2cccc(OC3OC(C)C4OC(c5ccc(OC)cc5)OC4C3OC3OC(C)C(O)C(OC)C3O)c2c2oc(=O)c3c(C)ccc4oc(=O)c1c2c43` (centres unmarked) [compound 234], the LD50 in series [1] is ≥ 40 mg/kg. In addition, the response vs control in vivo at 40 mg/kg in the series with P-388 leukemia cells (Mus musculus, P388, iv, read-out: T/C (%) of MST) stood at 135%.
For `COC1C(O)C(C)OC(OC2C(Oc3cccc4c(OC(=O)CCCCCBr)c5c(=O)oc6ccc(C)c7c(=O)oc(c34)c5c67)OC(C)C3OC(C)(C)OC32)C1O` (centres unmarked) [compound 235], in series [1] (iv), the 50% lethal dose (LD50) was ≥ 60 mg/kg. Also, in the series with P-388 leukemia cells (setting [4]), the response vs control in vivo at 40 mg/kg was 145%.
Take `COC1C(O)C(C)OC(OC2C(Oc3cccc4c(OC(=O)CC(C)CC(C)(C)C)c5c(=O)oc6ccc(C)c7c(=O)oc(c34)c5c67)OC(C)C3OC(C)(C)OC32)C1O` (centres unmarked) [compound 237]: the LD50 in series [1] (iv) is ≥ 60 mg/kg. In the series with P-388 leukemia cells (setting [2]), the response vs control in vivo at 60 mg/kg came to 242%.
On to `CC=CC=CC(=O)Oc1c2cccc(OC3OC(C)C4OC(C)(C)OC4C3OC3OC(C)C(O)C(OC)C3O)c2c2oc(=O)c3c(C)ccc4oc(=O)c1c2c43` (centres unmarked) [compound 238], for which the LD50 in series [1] (iv) is ≥ 80 mg/kg. In addition, the response vs control in vivo at 40 mg/kg with P-388 leukemia cells (setting [4]) was found to be 130%. Further, in the series with P-388 leukemia cells (setting [2]), the response vs control in vivo at 80 mg/kg stood at 192%.
Take `CCCCC(CC)C(=O)Oc1c2cccc(OC3OC(C)C4OC(C)(C)OC4C3OC3OC(C)C(O)C(OC)C3O)c2c2oc(=O)c3c(C)ccc4oc(=O)c1c2c43` (centres unmarked) [compound 239]: in series [1] (iv), the median lethal dose (LD50) was ≥ 60 mg/kg. In addition, in the series with P-388 leukemia cells (setting [2]), the response vs control in vivo at 60 mg/kg amounted to 153%.
Regarding `CCC(C)C(=O)Oc1c2cccc(OC3OC(C)C4OC5(CCCCC5)OC4C3OC3OC(C)C(O)C(OC)C3O)c2c2oc(=O)c3c(C)ccc4oc(=O)c1c2c43` (centres unmarked) [compound 241], in series [1] (iv), the LD50 was ≥ 80 mg/kg. In addition, in the series on P-388 leukemia cells (setting [2]), the response vs control in vivo at 80 mg/kg was 135%.
Regarding `COC1C(O)C(C)OC(OC2C(Oc3cccc4c(OC(=O)c5ccccc5)c5c(=O)oc6ccc(C)c7c(=O)oc(c34)c5c67)OC(C)C3OC(C)(C)OC32)C1O` (centres unmarked) [compound 242], in series [1] (iv), the LD50 is ≥ 40 mg/kg. For the same compound, the response vs control in vivo at 20 mg/kg in the series with P-388 leukemia cells (setting [2]) stood at 137%.
